What all share (format): biochemical
One assay addresses T1, PTP1B (Homo sapiens, UniProt P18031).
T1 sequence (P18031 1-435): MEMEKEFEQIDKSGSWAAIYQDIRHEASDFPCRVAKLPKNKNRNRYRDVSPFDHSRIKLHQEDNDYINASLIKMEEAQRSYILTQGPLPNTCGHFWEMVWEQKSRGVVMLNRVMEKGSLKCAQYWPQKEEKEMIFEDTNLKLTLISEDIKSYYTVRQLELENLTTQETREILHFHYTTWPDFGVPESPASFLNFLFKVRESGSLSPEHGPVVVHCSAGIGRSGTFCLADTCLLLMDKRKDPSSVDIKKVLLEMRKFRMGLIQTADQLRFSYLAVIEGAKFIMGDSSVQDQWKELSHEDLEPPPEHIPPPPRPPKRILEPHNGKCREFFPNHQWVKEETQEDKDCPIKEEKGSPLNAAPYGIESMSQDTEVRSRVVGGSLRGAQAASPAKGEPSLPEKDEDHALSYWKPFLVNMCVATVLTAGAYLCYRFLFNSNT
In words: PTP-catalyzed hydrolysis of DiFMUP, IC50 determination (PTP1B). The method, then: (§1) The PTP-catalyzed hydrolysis of 6,8-difluoro-4-methylumbelliferyl phosphate (DiFMUP) in the presence of the test compound is assayed at 30° C. in a 60 μL 96 well format reaction system in 0.15 M Bis-Tris, pH 6.0 assay buffer having an ionic strength of 150 mM (adjusted with NaCl) and containing 1 mM dithiotreitol and 5% DMSO. At various concentrations of the compound, the initial rate at fixed DiFMUP concentration (equal to the corresponding Km value for each PTP) was determined using a FLx800 micro plate reader (Bio-Tek Instruments, Inc.), an excitation wave length of 360 nm and measuring the emission of the fluorescent reaction product 6,8-difluoro-7-hydroxy-4-methylcoumarin (DiFMU) at 460 nm. The nonenzymatic hydrolysis of the substrate was corrected by measuring the control without addition of enzyme. The IC50 value was determined by plotting the relative activity versus inhibitor concentrations and fitting to Equation 1 using the software GraphPad Prism™ (GraphPad Software, Inc.).
(§2) [formula] In this case, Vi, is the reaction velocity when the inhibitor concentration is [I], V0 is the reaction velocity with no inhibitor and IC50=Ki+Ki[S]/Km.

The target of a further assay is T2, Cdc25A (Homo sapiens, UniProt P30304).
T2 sequence (P30304 1-524): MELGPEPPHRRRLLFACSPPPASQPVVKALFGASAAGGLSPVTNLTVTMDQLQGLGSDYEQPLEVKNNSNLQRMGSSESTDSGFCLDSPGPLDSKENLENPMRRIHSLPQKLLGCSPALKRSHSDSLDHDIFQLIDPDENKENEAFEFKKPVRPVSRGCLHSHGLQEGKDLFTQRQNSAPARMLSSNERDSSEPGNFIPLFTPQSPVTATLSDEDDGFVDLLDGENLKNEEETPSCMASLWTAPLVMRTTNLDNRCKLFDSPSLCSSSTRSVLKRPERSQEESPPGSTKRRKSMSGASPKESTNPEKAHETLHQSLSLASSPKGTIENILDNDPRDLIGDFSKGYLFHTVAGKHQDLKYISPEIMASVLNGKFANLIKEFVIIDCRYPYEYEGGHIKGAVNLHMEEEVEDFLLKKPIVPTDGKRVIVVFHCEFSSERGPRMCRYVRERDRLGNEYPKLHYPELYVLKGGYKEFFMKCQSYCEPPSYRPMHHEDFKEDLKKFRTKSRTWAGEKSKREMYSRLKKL
Kind of assay: PTP-catalyzed hydrolysis of DiFMUP, IC50 determination (Cdc25A). The method, then:
as §1, §2

The next assay deals with VHR (Homo sapiens, UniProt P51452). In words: PTP-catalyzed hydrolysis of DiFMUP, IC50 determination (VHR). The following applies: DiFMUP at Km, pH 6.0, 30° C. How it is done:
as §1, §2

Where [1] appears, read: Table II, DiFMUP at Km, pH 6.0, 30° C.

Like-named read-outs stand apart in the source and are kept apart here.

Sequence of VHR (P51452 whole entry): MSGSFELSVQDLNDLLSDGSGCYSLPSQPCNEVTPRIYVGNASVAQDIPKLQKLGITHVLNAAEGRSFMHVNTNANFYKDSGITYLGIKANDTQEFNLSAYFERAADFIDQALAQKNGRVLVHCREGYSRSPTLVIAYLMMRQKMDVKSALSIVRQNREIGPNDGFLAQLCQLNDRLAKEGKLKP

The term IC50 denotes the concentration that inhibits the measured activity by half. Take `O=C1/C(=C/c2cn(-c3ccccc3)nc2-c2ccc(OCc3ccccc3)cc2)SC(=S)N1CCS(=O)(=O)O` [Compound 9]: the IC50 at PTP1B was 1750 nM; on Cdc25A (setting [1]), 3440 nM; on VHR (Table I, read-out: IC50), 78 nM; at VHR (Table II, read-out: IC50 VHR) it was 78 nM.

Take `O=C1/C(=C/c2cn(-c3ccccc3)nc2-c2ccc(OCc3ccc(Cl)cc3)cc2)SC(=S)N1CCS(=O)(=O)O` [Compound 10, (Z)-2-[5-({3-[4-(4-chlorobenzyloxy)phenyl]-1-phenyl-1H-pyrazol-4-yl}methylene)-4-oxo-2-thioxothiazolidin-3-yl]ethane sulfonic acid]: the IC50 against PTP1B (setting [1]) came out at 456 nM; on Cdc25A, 2450 nM; at VHR (Table I, read-out: IC50) it was 18 nM; on VHR (Table II, read-out: IC50 VHR), 18 nM.

For the molecule `O=C1/C(=C/c2cn(-c3ccccc3)nc2-c2ccc(S(=O)(=O)N3CCOCC3)cc2)SC(=S)N1CCS(=O)(=O)O` [Compound 14], the IC50 against PTP1B was 592 nM; against Cdc25A it was 3370 nM; at VHR (Table I, read-out: IC50), 2440 nM; on VHR (Table II, read-out: IC50 VHR) it was 71 nM.
